Legend:
[1] = biological target: CYP3A4 (Homo sapiens, UniProt P08684); assay: CYP3A4 fluorescent MBI test; assay type: in vitro ADME; parameters: host or cells: Escherichia coli; conditions: pre-reaction time 0 or 30 minutes, substrate 7-BFC
Experimental: The CYP3A4 fluorescent MBI test is a test of investigating enhancement of CYP3A4 inhibition of the compound of the present invention by a metabolism reaction. 7-benzyloxytrifluoromethylcoumarin (7-BFC) is debenzylated by the CYP3A4 enzyme (enzyme expressed in Escherichia coli) and a metabolite, 7-hydroxytrifluoromethylcoumarin (7-HFC) which emits fluorescent light is produced. The test is performed using 7-HFC production reaction as an index.
The reaction conditions are as follows: substrate, 5.6 μmol/L 7-BFC: pre-reaction time, 0 or 30 minutes; reaction time, 15 minutes; reaction temperature, 25° C. […]
An enzyme in a K-Pi buffer (pH 7.4) and the compound of the present invention solution as a pre-reaction solution were added to a 96-well plate at the composition of the pre-reaction, a part of it was transferred to another 96-well plate so that it was 1/10 diluted by a substrate in a K-Pi buffer, NADPH as a co-factor was added to initiate a reaction as an index (without preincubation) and, after a predetermined time of a reaction, acetonitrile/0.5 mol/L Tris (trishydroxyaminomethane)=4/1 was added to stop the reaction. […] For the plate on which each index reaction had been performed, a fluorescent value of 7-HFC which is a metabolite was measured with a fluorescent plate reader. […]

[2] = biological target: T1, Recombinant human BACE1 (Homo sapiens, UniProt P56817); assay: Assay of BACE1 inhibitory activity; assay type: biochemical; conditions: Recombinant human BACE1, 30° C., 3 hours, pH 5.0; read-out: IC50 (50% inhibitory concentration against the enzymatic activity)
T1 construct: purchased R&D Systems
T1 sequence (P56817 46-501): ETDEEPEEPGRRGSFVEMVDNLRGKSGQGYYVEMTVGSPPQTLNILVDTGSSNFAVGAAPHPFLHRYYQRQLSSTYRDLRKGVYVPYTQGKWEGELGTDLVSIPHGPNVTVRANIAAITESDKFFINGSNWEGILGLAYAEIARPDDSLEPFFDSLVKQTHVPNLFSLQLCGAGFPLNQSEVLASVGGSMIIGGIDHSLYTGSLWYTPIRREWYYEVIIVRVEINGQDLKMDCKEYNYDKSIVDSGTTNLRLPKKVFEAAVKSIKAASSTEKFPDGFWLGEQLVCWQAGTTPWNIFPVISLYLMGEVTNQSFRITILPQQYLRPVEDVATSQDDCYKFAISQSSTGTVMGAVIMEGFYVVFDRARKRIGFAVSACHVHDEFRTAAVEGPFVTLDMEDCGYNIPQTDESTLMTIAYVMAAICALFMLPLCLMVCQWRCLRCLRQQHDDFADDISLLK
Experimental: 48.5 μL of substrate peptide solution (Biotin-XSEVNLDAEFRHDSGC-Eu: X=ε-amino-n-capronic acid, Eu=Europium cryptate) was added to each well of 96-hole half-area plate (a black plate: Costar), and after addition of 0.5 μl of the compound of the present invention (N,N′-dimethylformamide solution) and 1 μl of Recombinant human BACE1(R&D Systems), the reaction mixture was incubated at 30° C. for 3 hours. The substrate peptide was synthesized by reacting Cryptate TBPCOOH mono SMP (CIS bio international) with Biotin-XSEVNLDAEFRHDSGC (Peptide Institute, Inc.). The final concentrations of the substrate peptide and Recombinant human BACE1 were adjusted to 18 nmol/L and 7.4 nmol/L, respectively, and the reaction was performed in sodium acetate buffer (50 mmol/L sodium acetate, pH 5.0, 0.008% Triton X-100). After the incubation for reaction, 50 μl of 8.0 μg/ml Streptavidin-XL665 (CIS bio international) dissolved in phosphate buffer (150 mmol/L K2HPO4—KH2PO4, pH 7.0, 0.008% Triton X-100, 0.8 mol/L KF) was added to each well and left stand at 30° C. for 1 hour. After then, fluorescence intensity was measured (excitation wavelength: 320 nm, measuring wavelength: 620 nm and 665 nm) using Wallac 1420 multilabel counter (Perkin Elmer life sciences). Enzymatic activity was determined from counting ratio of each wavelength (10,000×Count 665/Count 620) and 50% inhibitory concentration against the enzymatic activity (IC50) was calculated.

[3] = tested on: Aβ production in Neuroblastoma SH-SY5Y cells (SH/APPwt); assay: Measurement of β-amyloid (Aβ) production inhibiting effect in cell; assay type: cell-based; conditions: Homo sapiens, 24 hours, Amyloid β1-40 HTRF, read-out: IC50 (amount needed to inhibit Aβ production by 50%)
Experimental: Neuroblastoma SH-SY5Y cells (SH/APPwt) with human wild-type 13-APP excessively expressed therein were prepared at 8×10^5 cells/mL, and 150 μl portions thereof were inoculated into each well of a 96-well culture plate (Falcon). The cells were cultured for 2 hours at 37° C. in a 5% gaseous carbon dioxide incubator. Then, a solution which have been preliminarily prepared by adding and suspending the compound of the present invention (DMSO (dimethyl sulfoxide) solution) so as to be 2 μl/50 μl medium was added to the cell sap. Namely, the final DMSO concentration was 1%, and the amount of the cell culture was 200 μl. After the incubation was performed for 24 hours from the addition of the test compound, 100 μl of the culture supernatant was collected from each fraction. The amount of the Aβ in each fraction was measured.
The Aβ amount was measured as follows. 10 μl of a homogeneous time resolved fluorescence (HTRF) measurement reagent (Amyloid β1-40 peptide; IBA Molecular Holding, S.A.) and 10 μl of the culture supernatant were put into a 384-well half area microplate (black microplate, Costar) and mixed with each other, and then left standing overnight at 4° C. while the light was shielded. Then, the fluorescence intensity (excitation wavelength: 337 nm, measurement wavelength: 620 nm and 665 nm) was measured with Wallac 1420 multilabel counter (Perkin Elmer life sciences). The Aβ amount was determined from the count rate at each measurement wavelength (10000×Count 665/Count 620), and the amount needed to inhibit A6 production by 50% (IC50) was calculated from at least six different dosages.

[4] = Solubility test (turbidity, JP-I, JP-II); assay type: physicochemical; conditions: kinetic from dmso stock, turbidity after 4 hours, 2% DMSO
Experimental: A 2-fold dilution series (12 points) of a 10 mM solution of a compound of the present invention in DMSO was added to a medium (JP-I, JP-II) (2%), and solubility was assessed by 3 stages (High; >40 μM, Medium; 3-40 μM, Low; <3 μM) from a turbidity after 4 hours.

Sequence of CYP3A4 (P08684 whole entry): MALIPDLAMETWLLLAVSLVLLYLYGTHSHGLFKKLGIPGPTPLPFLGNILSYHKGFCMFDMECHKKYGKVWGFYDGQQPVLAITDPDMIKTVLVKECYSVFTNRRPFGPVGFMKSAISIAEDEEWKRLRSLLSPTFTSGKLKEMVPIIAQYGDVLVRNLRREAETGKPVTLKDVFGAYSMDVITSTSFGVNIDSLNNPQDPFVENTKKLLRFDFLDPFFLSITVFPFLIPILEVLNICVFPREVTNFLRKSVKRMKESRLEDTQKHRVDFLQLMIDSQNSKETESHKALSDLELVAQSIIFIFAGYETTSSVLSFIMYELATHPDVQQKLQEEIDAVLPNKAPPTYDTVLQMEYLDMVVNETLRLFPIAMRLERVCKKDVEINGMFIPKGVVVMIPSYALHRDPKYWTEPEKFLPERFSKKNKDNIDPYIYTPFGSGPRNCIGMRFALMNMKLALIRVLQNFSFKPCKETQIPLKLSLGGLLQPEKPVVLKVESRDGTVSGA

SMILES	IC50 [2]	other results
CC1(c2cc(NC(=O)c3ccc(C#N)cn3)ccc2F)Cc2ncccc2C(N)=N1 (stereo not drawn) [Compound I-1]	54 nM	CYP3A4 fluorescent MBI (difference between IC50 values without and with preincubation) [1]: (−) (when the difference is 3 μM or less, this was defined as (−))
CC1(c2cc(NC(=O)c3ccc(Cl)cn3)ccc2F)Cc2ccncc2C(N)=N1 (stereo not drawn) [Compound I-3]	≤ 1000 nM	–
CC1(c2cc(NC(=O)c3ccc(C#N)cn3)ccc2F)Cc2cccnc2C(N)=N1 (stereo not drawn) [Compound I-4]	≤ 1000 nM	–
CC1(c2cc(NC(=O)c3ccc(C#N)cn3)ccc2F)Cc2cncc(F)c2C(N)=N1 (stereo not drawn) [Compound I-6]	≤ 1000 nM	–
CC1(c2cc(NC(=O)c3ccc(C#N)cn3)ccc2F)Cc2ncc(F)cc2C(N)=N1 (stereo not drawn) [Compound I-7]	≤ 1000 nM	IC50 [3]: 2 nM
CC1(c2cc(NC(=O)c3ccc(C#N)cn3)ccc2F)Cc2ccncc2C(N)=N1 (stereo not drawn) [Compound I-8]	≤ 1000 nM	–
CC1(c2cc(NC(=O)c3ccc(C#N)cn3)ccc2F)Cc2c(F)cncc2C(N)=N1 (stereo not drawn) [Compound I-9]	≤ 1000 nM	solubility at 4 h ([4]; JP-I medium, pH 1.2, simulated gastric fluid, JP-I): > 40 µM; solubility at 4 h ([4]; JP-II medium, pH 6.8, aqueous buffer, JP-II): > 40 µM
CC1(c2cc(NC(=O)c3ccc(C#N)cn3)ccc2F)Cc2c(ccnc2F)C(N)=N1 (stereo not drawn) [Compound I-10]	≤ 1000 nM	–
CC1(c2cc(NC(=O)c3ccc(Cl)cn3)ccc2F)Cc2cnccc2C(N)=N1 (stereo not drawn) [Compound I-11]	≤ 1000 nM	–
CC1(c2cc(NC(=O)c3ncc(F)cc3F)ccc2F)Cc2cnccc2C(N)=N1 (stereo not drawn) [Compound I-12]	≤ 1000 nM	–
CC1(c2cc(NC(=O)c3ccc(C(F)(F)F)cn3)ccc2F)Cc2cnccc2C(N)=N1 (stereo not drawn) [Compound I-13]	≤ 1000 nM	–
COc1cnc(C(=O)Nc2ccc(F)c(C3(C)Cc4cnccc4C(N)=N3)c2)cn1 (stereo not drawn) [Compound I-14]	≤ 1000 nM	–
Cc1cnc(C(=O)Nc2ccc(F)c(C3(C)Cc4cnccc4C(N)=N3)c2)cn1 (stereo not drawn) [Compound I-15]	≤ 1000 nM	–
CC#CCOc1cnc(C(=O)Nc2ccc(F)c(C3(C)Cc4cnccc4C(N)=N3)c2)cn1 (stereo not drawn) [Compound I-16]	≤ 1000 nM	–

Now from value to molecule, other results behind:

IC50 [2]	SMILES	other results
≤ 1000 nM	CC1(c2cc(NC(=O)c3ccc(Cl)cn3)ccc2F)Cc2c(F)cncc2C(N)=N1 (stereo not drawn) [Compound I-17]	–
≤ 1000 nM	CC1(c2cc(NC(=O)c3ncc(F)cc3F)ccc2F)Cc2c(F)cncc2C(N)=N1 (stereo not drawn) [Compound I-18]	–
≤ 1000 nM	CC1(c2cc(NC(=O)c3ccc(C(F)(F)F)cn3)ccc2F)Cc2c(F)cncc2C(N)=N1 (stereo not drawn) [Compound I-19]	–
≤ 1000 nM	COc1cnc(C(=O)Nc2ccc(F)c(C3(C)Cc4c(F)cncc4C(N)=N3)c2)cn1 (stereo not drawn) [Compound I-20]	–
≤ 1000 nM	Cc1cnc(C(=O)Nc2ccc(F)c(C3(C)Cc4c(F)cncc4C(N)=N3)c2)cn1 (stereo not drawn) [Compound I-21]	–
≤ 1000 nM	CC#CCOc1cnc(C(=O)Nc2ccc(F)c(C3(C)Cc4c(F)cncc4C(N)=N3)c2)cn1 (stereo not drawn) [Compound I-22]	–
≤ 1000 nM	CC1(c2cc(NC(=O)c3ccc(C(F)(F)F)cn3)ccc2F)Cc2ccncc2C(N)=N1 (stereo not drawn) [Compound I-23]	–
≤ 1000 nM	COc1cnc(C(=O)Nc2ccc(F)c(C3(C)Cc4ccncc4C(N)=N3)c2)cn1 (stereo not drawn) [Compound I-24]	–
≤ 1000 nM	Cc1cnc(C(=O)Nc2ccc(F)c(C3(C)Cc4ccncc4C(N)=N3)c2)cn1 (stereo not drawn) [Compound I-25]	–
≤ 1000 nM	CC#CCOc1cnc(C(=O)Nc2ccc(F)c(C3(C)Cc4ccncc4C(N)=N3)c2)cn1 (stereo not drawn) [Compound I-26]	–
308 nM	CC#CC(=O)Nc1ccc(F)c(C2(C)Cc3cnccc3C(N)=N2)c1 (stereo not drawn) [Compound I-27]	–
≤ 3000 nM	COCC#CC(=O)Nc1ccc(F)c(C2(C)Cc3cnccc3C(N)=N2)c1 (stereo not drawn) [Compound I-28]	IC50 [3]: ≤ 3000 nM
≤ 3000 nM	CCCC#CC(=O)Nc1ccc(F)c(C2(C)Cc3cnccc3C(N)=N2)c1 (stereo not drawn) [Compound I-29]	–
147 nM	CC1(c2cc(NC(=O)C#Cc3ccccc3)ccc2F)Cc2cnccc2C(N)=N1 (stereo not drawn) [Compound I-30]	IC50 [3]: 46 nM
≤ 3000 nM	CC1(c2cc(NC(=O)C#CC3CC3)ccc2F)Cc2cnccc2C(N)=N1 (stereo not drawn) [Compound I-31]	–
≤ 3000 nM	CCCCC#CC(=O)Nc1ccc(F)c(C2(C)Cc3cnccc3C(N)=N2)c1 (stereo not drawn) [Compound I-32]	–
≤ 1000 nM	CCC#CC(=O)Nc1ccc(F)c(C2(C)Cc3cnccc3C(N)=N2)c1 (stereo not drawn) [Compound I-33]	–
≤ 1000 nM	CC#CC(=O)Nc1ccc(F)c(C2(C)Cc3c(F)cncc3C(N)=N2)c1 (stereo not drawn) [Compound I-34]	IC50 [3]: 20 nM

Reference: US8927721B2, “Naphthyridine derivative” (Shionogi & Co., Ltd., priority 2010, dated 2015)
